Measurements reported in patent US20080050444A1, “Pharmaceutical compositions of ilaparazole” (priority 2005, published 2008).

Columns and labels:
[1] = Particle size distribution of ilaprazole lots (Sympatec HELOS, low-angle laser light scattering); assay type: physicochemical; conditions: nitrogen pressure 2 bar
Procedure: The two lots of ilaprazole active ingredient were analyzed using a Sympatec HELOS particle size system with a RODOS dry powder disperser. This instrument operates using low-angle laser light scattering analyzed by Fraunhofer diffraction theory. Aliquots of approximately 0.5 g were fed into the instrument from a vibrating tray into a jet of nitrogen gas. After flowing through an interaction tube, an aerosol was formed in the path of a laser beam. The angle and intensity of diffracted light was then measured to determine the particle size distribution. As part of the method development, the particle size distribution was measured as a function of nitrogen gas pressure, and a pressure of 2 bar was determined to adequately break apart loosely adhered particles without significant milling of the sample. The results are shown below in Table 1 and in FIG. 1. The particle sizes are listed as x10, x50 and x90, the diameter where 10%, 50% and 90% of the volume of the material is in a particle smaller than the listed size.

[2] = acid or neutral conditions; known in the art; cited from earlier work

| SMILES | x10 Mean ([1]; diameter where 10% of the volume of the material is in a particle smaller than the listed size) | x50 Mean ([1]; diameter where 50% of the volume of the material is in a particle smaller than the listed size) | x90 Mean ([1]; diameter where 90% of the volume of the material is in a particle smaller than the listed size) | stability [2] |
| --- | --- | --- | --- | --- |
| COc1ccnc(C[S+]([O-])c2nc3cc(-n4cccc4)ccc3[nH]2)c1C (stereo not shown) [Lot A, ilaprazole] | 1.01 μm | 3.74 μm | 14.79 μm |  |
| COc1ccnc(C[S+]([O-])c2nc3cc(-n4cccc4)ccc3[nH]2)c1C (stereo not shown) [ilaprazole, 2-[[(4-methoxy-3-methyl)-2-pyridyl]methylsufinyl]-5-(1H-pyrrol-1-yl)benzimidazole] |  |  |  | unstable under acid or neutral conditions |
